In PubChem BioAssay (NCI):
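48-hour exposure; five concentrations; linearly interpolated endpoints. GI50 = concentration required for 50% inhibition of growth. At the TGI there is no net growth.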

What was measured:
Assay in all cases: NCI tumour cell line growth inhibition, 48 h
[1] = tested on: HCC-2998 colon
[2] = tested on: HOP-92 NSCLC
[3] = tested on: HS 578T breast
[4] = tested on: IGROV1 ovarian
[5] = tested on: SK-MEL-2 melanoma
[6] = tested on: RXF 393 renal
[7] = tested on: SF-539 CNS
[8] = tested on: COLO 205 colon
[9] = tested on: OVCAR-5 ovarian
[10] = tested on: A498 renal
[11] = tested on: SW-620 colon
[12] = tested on: EKVX NSCLC
[13] = tested on: ACHN renal
[14] = tested on: TK-10 renal
[15] = tested on: PC-3 prostate
[16] = tested on: MALME-3M melanoma
[17] = tested on: CCRF-CEM leukemia
[18] = tested on: SK-OV-3 ovarian
[19] = tested on: MDA-MB-435
[20] = tested on: U251 CNS
[21] = tested on: SK-MEL-5 melanoma
[22] = tested on: DU-145 prostate
[23] = tested on: OVCAR-8 ovarian
[24] = tested on: SF-295 CNS
[25] = tested on: UO-31 renal
[26] = tested on: SR leukemia
[27] = tested on: HL-60(TB) leukemia
[28] = tested on: NCI-H23 lung
[29] = tested on: A549 NSCLC
[30] = tested on: OVCAR-3 ovarian
[31] = tested on: M14 melanoma
[32] = tested on: MDA-MB-231 breast
[33] = tested on: NCI/ADR-RES ovarian
[34] = tested on: HT29 colon
[35] = tested on: HOP-62 NSCLC
[36] = tested on: T-47D breast
[37] = tested on: NCI-H460 lung
[38] = tested on: HCT-116 colon
[39] = tested on: MOLT-4 leukemia
[40] = tested on: LOX IMVI melanoma
[41] = tested on: SK-MEL-28 melanoma
[42] = tested on: HCT-15 colon
[43] = tested on: SNB-75 CNS
[44] = tested on: CAKI-1 renal
[45] = tested on: UACC-62 melanoma
[46] = tested on: NCI-H226 lung
[47] = tested on: BT-549 breast
[48] = tested on: SN12C renal
[49] = tested on: SF-268 CNS
[50] = tested on: RPMI-8226 leukemia
[51] = tested on: UACC-257 melanoma
[52] = tested on: 786-0 renal
[53] = tested on: KM12 colon
[54] = tested on: NCI-H522 lung
[55] = tested on: OVCAR-4 ovarian
[56] = tested on: K-562 leukemia
[57] = tested on: MCF7 breast

Q: What does the source list for `CCCCCCCCc1ccc(OCCOCC[N+](C)(C)CC)cc1` (tested in a mixture with another compound)?
A: GI50 [1]: 3.74 µM; TGI [1]: 13.6 µM; GI50 [2]: 1.17 µM; TGI [2]: 4.51 µM; GI50 [3]: 3.2 µM; TGI [3]: 16.6 µM; GI50 [4]: 3.74 µM; TGI [4]: 14.7 µM; GI50 [5]: 2.56 µM; TGI [5]: 8.53 µM; GI50 [6]: 10.5 µM; TGI [6]: 23.4 µM; GI50 [7]: 3.97 µM; TGI [7]: 15 µM; GI50 [8]: 1.59 µM; TGI [8]: 3.21 µM; GI50 [9]: 7.5 µM; TGI [9]: 20.9 µM; GI50 [10]: 9.16 µM; TGI [10]: 22 µM; GI50 [11]: 3.97 µM; TGI [11]: 16.1 µM; GI50 [12]: 4.6 µM; TGI [12]: 18.7 µM; GI50 [13]: 15.6 µM; TGI [13]: 30.4 µM; GI50 [14]: 14.8 µM; TGI [14]: 29.1 µM; GI50 [15]: 3.12 µM; TGI [15]: 12.6 µM; GI50 [16]: 1.93 µM; TGI [16]: 6.44 µM; GI50 [17]: 3.2 µM; TGI [17]: 15.9 µM; GI50 [18]: 7.74 µM; TGI [18]: 20.2 µM; GI50 [19]: 2.91 µM; TGI [19]: 11.2 µM; GI50 [20]: 1.8 µM; TGI [20]: 12.3 µM; GI50 [21]: 1.45 µM; TGI [21]: 3.06 µM; GI50 [22]: 8.09 µM; TGI [22]: 22.8 µM; GI50 [23]: 3.81 µM; TGI [23]: 15.4 µM; GI50 [24]: 13 µM; TGI [24]: 27 µM; GI50 [25]: 17.5 µM; TGI [25]: 45.4 µM; GI50 [26]: 3 µM; TGI [26]: 14.3 µM; GI50 [27]: 1.47 µM; TGI [27]: 4.85 µM; GI50 [28]: 3.42 µM; TGI [28]: 15.8 µM; GI50 [29]: 9.99 µM; TGI [29]: 23.1 µM; GI50 [30]: 2.79 µM; TGI [30]: 12.5 µM; GI50 [31]: 4.07 µM; TGI [31]: 17.2 µM; GI50 [32]: 2.75 µM; TGI [32]: 11.3 µM; GI50 [33]: > 100 µM; TGI [33]: > 100 µM; GI50 [34]: 3.1 µM; TGI [34]: 13.5 µM; GI50 [35]: 5 µM; TGI [35]: 17.2 µM; GI50 [36]: 3.14 µM; TGI [36]: 13.7 µM; GI50 [37]: 3.94 µM; TGI [37]: 14.5 µM; GI50 [38]: 3.84 µM; TGI [38]: 14.8 µM; GI50 [39]: 4.39 µM; TGI [39]: 18.2 µM; GI50 [40]: 2.7 µM; TGI [40]: 13.7 µM; GI50 [41]: 3.25 µM; TGI [41]: 15.4 µM; GI50 [42]: 24.8 µM; TGI [42]: > 100 µM; GI50 [43]: 2.12 µM; TGI [43]: 9 µM; GI50 [44]: 54.8 µM; TGI [44]: > 100 µM; GI50 [45]: 1.88 µM; TGI [45]: 5.48 µM; GI50 [46]: 4.31 µM; TGI [46]: 19.2 µM; GI50 [47]: 3.03 µM; TGI [47]: 9.8 µM; GI50 [48]: 3.07 µM; TGI [48]: 11.9 µM; GI50 [49]: 4.22 µM; TGI [49]: 16.9 µM; GI50 [50]: 2.03 µM; TGI [50]: 6.82 µM; GI50 [51]: 2.34 µM; TGI [51]: 6.8 µM; GI50 [52]: 14.2 µM; TGI [52]: 28.8 µM; GI50 [53]: 3.72 µM; TGI [53]: 13.8 µM; GI50 [54]: 2.18 µM; TGI [54]: 9.84 µM; GI50 [55]: 1.66 µM; TGI [55]: 10.8 µM; GI50 [56]: 3.06 µM; TGI [56]: 15.4 µM; GI50 [57]: 3.05 µM; TGI [57]: 12.6 µM
